Data published in publication PMC10535864, “Novel Aminopyrimidine-2,4-diones, 2-Thiopyrimidine-4-ones, and 6-Arylpteridines as Dual-Target Inhibitors of BRD4/PLK1: Design, Synthesis, Cytotoxicity, and Computational Studies” (Pharmaceuticals, 2023).

Key:
Assay type in all cases: cell-based
[1] = tested on: MDA-MB-231 breast cancer cells; test: MTT cytotoxicity assay, MDA-MB-231; conditions: MDA-MB-231, MTT; for IC50: mean of three independent experiments ± SD, read-out: IC50 Value MDA-MB-231
Procedure: (§1) All newly synthetic compounds were tested for cytotoxicity using a six-dose MTT colorimetric assay on three cancer cell lines; namely, breast cancer cells (MDA-MB-231), colorectal adenocarcinoma cells (HT-29) and renal cancer cells (U-937). […] However, renal cancer cells (U-937) were discovered to be the least sensitive.
(§2) Using a six-dose MTT colorimetric assay, all new synthetic compounds were tested for cytotoxicity against three cancer cell lines: MDA-MB-231 breast cancer cells, HT-29 colorectal adenocarcinoma cells, and U-937 renal cancer cells. […] These cell lines were supplied by ATCC (American Type Culture Collection) via the Holding company for biological products and vaccines (VACSERA, Cairo, Egypt). The reference control used was Methotrexate. Detailed descriptions of the MTT colorimetric assay’s protocol can be found in the Supplementary file.
(§3) 1.1.In-vitro cytotoxicity screening
(§4) Using a six-dose MTT colorimetric assay, allnew synthetic compounds were tested for cytotoxicity against three cancer cell lines: MDA-MB-231 breast cancer cells,HT-29 colorectal adenocarcinoma cells, and U-937 renal […]
(§5) The cell lines were supplied by ATCC (American Type Culture Collection). The reference control used was Methotrexate. The cytotoxic activities of the examined compounds were quantified by inoculating a 96-well tissue culture plate with 1 X 10^5 cells / mL (100 uL/well) and incubating it at 37°C for 24 hours to develop a complete monolayer sheet. After forming a confluent sheet of cells, the growth medium was decanted from 96-well microtiter plates, and the cell monolayer was washed twice with wash media. Two-fold dilutions of tested samples were made in RPMI medium with 2% serum (maintenance medium), and 0.1 mL of each dilution was tested in different wells, with three wells serving as controls and receiving only maintenance medium. Following that, the plate was incubated at 37°C and examined. Cells were investigated for any physical signs of toxicity, such as partial or complete monolayer loss, rounding, shrinkage, or cell granulation. MTT solution was prepared (5mg/ml in PBS) (BIO BASIC CANADA INC), and 20 uL MTT solution was added to each well. After 5 minutes on a shaking table at150 rpm to thoroughly mix the MTT into the media, it was incubated (37°C, 5% CO2) for 4 hours to allow the MTT to be metabolized. Formazan (MTT metabolic product) was resuspended in 200 uL DMSO and shaken at 150 rpm for 5 minutes to thoroughly mix the formazan into the solvent. The optical density was measured at 560 nm, and the background was subtracted at 620 nm. Finally, the IC50 of the test compound in comparison to the reference was calculated using the GraphPad Prism software. […]

U-937 renal cancer cells = test: MTT cytotoxicity assay, U-937; conditions: MTT; for IC50: Homo sapiens, U-937, mean of three independent experiments ± SD, read-out: IC50 Value U-937; for Toxicity %: U937;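 on all read-outs here: Six-dose MTT colorimetric assay on cell monolayers, formazan absorbance read at 560 nm with 620 nm background removed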
[2] = MTT cytotoxicity assay, U-937; conditions: Homo sapiens, U-937, U937, MTT;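 further: Six-dose MTT colorimetric assay on cell monolayers, formazan absorbance read at 560 nm with 620 nm background removed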
[3] = tested on: HT-29 colorectal adenocarcinoma cells; test: MTT cytotoxicity assay, HT-29; conditions: MTT; for IC50: mean of three independent experiments ± SD, read-out: IC50 Value HT-29
Procedure: as §1, §2, §3, §4, §5

[4] = MTT cytotoxicity assay, normal Vero cells; conditions: African green monkey, normal Vero cells, MTT;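 further: monolayers exposed to two-fold dilutions in 2% serum medium, MTT added for 4 h, formazan in DMSO read at 560 nm minus 620 nm, controls given medium alone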
normal Vero cells = test: MTT cytotoxicity assay, normal Vero cells; conditions: Vero, MTT;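 further: monolayers exposed to two-fold dilutions in 2% serum medium, MTT added for 4 h, formazan in DMSO read at 560 nm minus 620 nm, controls given medium alone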
[5] = Homo sapiens, HT-29, HT29, 0.312 uM
[6] = Homo sapiens, HT-29, HT29, 0.625 uM
[7] = Homo sapiens, HT-29, HT29, 1.25 uM
[8] = Homo sapiens, HT-29, HT29, 2.5 uM
[9] = Homo sapiens, HT-29, HT29, 5 uM
[10] = Homo sapiens, HT-29, HT29, 10 uM

Structure (SMILES): Cn1c(SCC(=O)c2ccc([N+](=O)[O-])cc2)nc(=O)c(/N=C(/CBr)c2ccc([N+](=O)[O-])cc2)c1N [Compound 8, (E)-6-Amino-5-((2-bromo-1-(4-nitrophenyl)ethylidene)amino)-1-methyl-2-((2-(4-nitrophenyl)-2-oxoethyl)thio)pyrimidin-4(1H)-one]
- IC50 ([1]; Homo sapiens): 2310 ± 60 nM
- viability at 0.312 µM ([1]; Homo sapiens, 0.312 uM): 97.6%
- viability at 0.625 µM ([1]; Homo sapiens, 0.625 uM): 95.3%
- viability at 1.25 µM ([1]; Homo sapiens, 1.25 uM): 83.8%
- viability at 2.5 µM ([1]; Homo sapiens, 2.5 uM): 43.7%
- viability at 5 µM ([1]; Homo sapiens, 5 uM): 35.9%
- viability at 10 µM ([1]; Homo sapiens, 10 uM): 35.4%
- Toxicity % ([1]; 0.312 uM): 2.394%
- Toxicity % ([1]; 0.625 uM): 4.743%
- Toxicity % ([1]; 1.25 uM): 16.18%
- Toxicity % ([1]; 2.5 uM): 56.29%
- Toxicity % ([1]; 5 uM): 64.1%
- Toxicity % ([1]; 10 uM): 64.58%
- IC50 (U-937 renal cancer cells): 7770 ± 40 nM
- Toxicity % (U-937 renal cancer cells; 0.312 uM): 0.3813%
- Toxicity % (U-937 renal cancer cells; 0.625 uM): 0.6536%
- Toxicity % (U-937 renal cancer cells; 1.25 uM): 0.05447%
- Toxicity % (U-937 renal cancer cells; 2.5 uM): 0.2179%
- Toxicity % (U-937 renal cancer cells; 5 uM): 20.42%
- Toxicity % (U-937 renal cancer cells; 10 uM): 72.39%
- viability at 0.312 µM [2]: 99.6%
- viability at 0.625 µM [2]: 99.3%
- viability at 1.25 µM [2]: 99.9%
- viability at 2.5 µM [2]: 99.8%
- viability at 5 µM [2]: 79.6%
- viability at 10 µM [2]: 27.6%
- Toxicity % ([3]; HT29, 0.312 uM): 0.08613%
- Toxicity % ([3]; HT29, 0.625 uM): 0.1292%
- Toxicity % ([3]; HT29, 1.25 uM): 0.5599%
- Toxicity % ([3]; HT29, 2.5 uM): 0.3876%
- Toxicity % ([3]; HT29, 5 uM): 50.34%
- Toxicity % ([3]; HT29, 10 uM): 77.91%
- viability at 0.312 µM [3, 5]: 99.9%
- viability at 0.625 µM [3, 6]: 99.9%
- viability at 1.25 µM [3, 7]: 99.4%
- viability at 2.5 µM [3, 8]: 99.6%
- viability at 5 µM [3, 9]: 49.7%
- viability at 10 µM [3, 10]: 22.1%
- IC50 ([3]; Homo sapiens, HT-29): 6480 ± 80 nM

Structure (SMILES): CN(Cc1cnc2nc(N)nc(N)c2n1)c1ccc(C(=O)N[C@@H](CCC(=O)O)C(=O)O)cc1 [Methotrexate, reference compound]
- IC50 ([4]; mean of three independent experiments ± SD, read-out: In Vitro Cytotoxicity against Normal Cells IC50 Value, Vero Cells): 10200 ± 300 nM
- viability at 0.312 µM ([4]; Vero, 0.312 uM): 99.7%
- viability at 0.625 µM ([4]; Vero, 0.625 uM): 100%
- viability at 1.25 µM ([4]; Vero, 1.25 uM): 99.3%
- viability at 2.5 µM ([4]; Vero, 2.5 uM): 97.3%
- viability at 5 µM ([4]; Vero, 5 uM): 87.6%
- viability at 10 µM ([4]; Vero, 10 uM): 50.2%
- Toxicity % (normal Vero cells; 0.312 uM): 0.3046%
- Toxicity % (normal Vero cells; 0.625 uM): 0.04352%
- Toxicity % (normal Vero cells; 1.25 uM): 0.7398%
- Toxicity % (normal Vero cells; 2.5 uM): 2.698%
- Toxicity % (normal Vero cells; 5 uM): 12.45%
- Toxicity % (normal Vero cells; 10 uM): 49.78%
- IC50 ([1]; Homo sapiens): 2790 ± 60 nM
- viability at 0.078 µM ([1]; Homo sapiens, 0.078 uM): 99.9%
- viability at 0.156 µM ([1]; Homo sapiens, 0.156 uM): 99.7%
- viability at 0.312 µM ([1]; Homo sapiens, 0.312 uM): 99.6%
- viability at 0.625 µM ([1]; Homo sapiens, 0.625 uM): 99.8%
- viability at 1.25 µM ([1]; Homo sapiens, 1.25 uM): 81.5%
- viability at 2.5 µM ([1]; Homo sapiens, 2.5 uM): 42.4%
- viability at 5 µM ([1]; Homo sapiens, 5 uM): 19.5%
- viability at 10 µM ([1]; Homo sapiens, 10 uM): 11.8%
- Toxicity % ([1]; 0.078 uM): 0.0883%
- Toxicity % ([1]; 0.156 uM): 0.2649%
- Toxicity % ([1]; 0.312 uM): 0.3532%
- Toxicity % ([1]; 0.625 uM): 0.2208%
- Toxicity % ([1]; 1.25 uM): 18.45%
- Toxicity % ([1]; 2.5 uM): 57.62%
- Toxicity % ([1]; 5 uM): 80.53%
- Toxicity % ([1]; 10 uM): 88.17%
- IC50 (U-937 renal cancer cells): 1220 ± 20 nM
- Toxicity % (U-937 renal cancer cells; 0.078 uM): 0.1004%
- Toxicity % (U-937 renal cancer cells; 0.156 uM): 0.0502%
- Toxicity % (U-937 renal cancer cells; 0.312 uM): 1.104%
- Toxicity % (U-937 renal cancer cells; 0.625 uM): 3.112%
- Toxicity % (U-937 renal cancer cells; 1.25 uM): 52.46%
- Toxicity % (U-937 renal cancer cells; 2.5 uM): 68.47%
- Toxicity % (U-937 renal cancer cells; 5 uM): 91.62%
- Toxicity % (U-937 renal cancer cells; 10 uM): 92.37%
- viability at 0.078 µM ([2]; 0.078 uM): 99.9%
- viability at 0.156 µM ([2]; 0.156 uM): 99.9%
- viability at 0.312 µM [2]: 98.9%
- viability at 0.625 µM [2]: 96.9%
- viability at 1.25 µM [2]: 47.5%
- viability at 2.5 µM [2]: 31.5%
- viability at 5 µM [2]: 8.38%
- viability at 10 µM [2]: 7.63%
- Toxicity % ([3]; HT29, 0.078 uM): 0.5016%
- Toxicity % ([3]; HT29, 0.156 uM): 0.912%
- Toxicity % ([3]; HT29, 0.312 uM): 0.228%
- Toxicity % ([3]; HT29, 0.625 uM): 26.95%
- Toxicity % ([3]; HT29, 1.25 uM): 66.94%
- Toxicity % ([3]; HT29, 2.5 uM): 89.83%
- Toxicity % ([3]; HT29, 5 uM): 97.45%
- Toxicity % ([3]; HT29, 10 uM): 97.58%
- viability at 0.078 µM ([3]; Homo sapiens, HT-29, HT29, 0.078 uM): 99.5%
- viability at 0.156 µM ([3]; Homo sapiens, HT-29, HT29, 0.156 uM): 99.1%
- viability at 0.312 µM [3, 5]: 99.8%
- viability at 0.625 µM [3, 6]: 73.1%
- viability at 1.25 µM [3, 7]: 33.1%
- viability at 2.5 µM [3, 8]: 10.2%
- viability at 5 µM [3, 9]: 2.55%
- viability at 10 µM [3, 10]: 2.42%
- IC50 ([3]; Homo sapiens, HT-29): 990 ± 20 nM
